# Experimental data from US20260256716A1, “COMPOSITIONS AND METHODS OF USE THEREOF” (Board of Supervisors of Louisiana State University and …, priority 2023, published 2026).
# Entries after “also recorded” stand apart in the source; their conditions may differ.
# Key:
# [1] = tested on: phosphorylated myosin light chain; assay: Western blot of phosphorylated myosin light chain (MLC) in ARPE-19 cells under hyperglycemic conditions; assay type: cell-based, human
# Protocol: A Hallmark of Age-Associated Ocular and Neurodegenerative Disorders is Cytoskeletal Alteration and Induction of CONTRACTILE Stress Fiber Formation. Expression and activation via phosphorylation of Myosin Light Chain (MLC), is a biomarker of disease development. ARPE-19 cells and ARPE-19 cells specifying 5-HT2AR knockouts were plated in nutrient rich media (DMEM; 7% FCS) overnight. Cells were fixed, permeabilized, and stained phalloidin and α-phosphorylated-Myosin light chain. Cytoskeletal elements were then visualized by fluorescent microscopy to visualize actin fiber cytoskeletal structures (phalloidin, red) and contractile phosphorylated myosin light chain (green) via fluorescent microscopy. […] ARPE-19 cells were cultured under hyperglycemic conditions in nutrient rich media (DMEM High glucose; 7% FCS) overnight either in the absence or presence of 5-HT2A receptor agonists R-DOI and 2CiBu at 10 nm or 100 nM concentrations. The relative expression of the activated disease biomarker contractile phosphorylated myosin light chain was determined using specific antibodies and western blot analysis. 5-HT2A agonists. […] Therefore, 5-HT2A agonism at low concentrations have the potential to prevent and reverse deleterious cytoskeletal events that can be induced under hyperglycemic conditions, such as in diabetics.
# This can be consistent with 2C-iBu being able to regulate IOP and that 5HT2A agonists prevented edema formation and disruption of corneal architecture in a model of herpetic keratitis.
# AMP kinase = AMP kinase activation in treated cells; assay type: cell-based; details: low nM concentrations
# ARPE-19 cells [2] = assay: ATP luciferase assay in ARPE-19 cells; assay type: cell-based, human
# ARPE cells = assay: Blue light induced mitochondrial fragmentation in ARPE cells (mitotracker green); assay type: cell-based, human; details: 100 nM; 48 hours; hyperglycemic conditions; blue light 400 nm
# Protocol: ARPE cells grown under hyperglycemic conditions were plated and mock treated or treated with R-DOI or 2C-iBu at 100 nM. 48 hours post treatment, mitochondria in live cells were visualized by staining mitochondria with mitotracker green (green). Once stained, live ARPE cells were exposed to focused blue light at 400 nm and the ability of drugs to protect against blue light damage-induced mitochondrial fragmentation was assessed.
# A549 cells = assay: Cell viability after cumene peroxide oxidative stress (Hoechst / propidium iodide); assay type: cell-based
# Protocol: A549 cells were treated with the indicated concentrations of R-DOI (panel A) or 2C-iBu (panel B) and subsequently exposed to cumene peroxide to oxidatively stress cells. Cell viability was visualized by staining with Hoescht (Blue) to mark total cells (live plus dead) and propidium iodide (red) to mark dead cells.
# ARPE-19 cells [3] = assay: FACS forward scatter cell size of ARPE-19 cells; assay type: cell-based, human; details: treated overnight, then 4 days in normal media
# Description: Upon initial seeding of potential 5HT2A KD cells there was a readily apparent alteration of normal ARPE cell morphology. Cells appeared flattened, extended, highly attached and enlarged. Each cell line isolate maintained this enlarged and flattened cell morphology as shown to the right and quantified below. […] This markedly altered morphology is present in cells that have begun to undergo changes related to aging, including evolving a senescent or pre-senescent phenotype. Therefore, FACS analysis of 5HT2A KD cells was performed comparing the cell size of Forward Scatter to ARPE-19 cells, treated overnight with Etoposide, an inhibitor of topoisomerase, and a known inducer of cell senescence, and then cultured for 4 days in normal media in the absence of etoposide. […] Further an increase in particles of “cell degranulation” sizing was also observed in all conditions compared to ARPE-19 WT controls.
# ARPE-19 cells [4] = assay: ARPE-19 proliferation (DAPI cell number, fold change in growth); assay type: cell-based, human; details: for cellular replication / proliferation: physiologically relevant serotonin levels, 72 h
# Protocol: Specific 5-HT2A Receptor Activation via Model Phenethylamines, like R-DOI. […] ARPE-19 cells were plated in nutrient rich media, DMEM, containing 7% dialyzed FCS and then starved in DMEM media containing 0.5% dialyzed FCS. Cells were then changed to 7% dialyzed FCS DMEM media containing physiolocial relevant levels of serotonin at varying concentrations and grown for 72-hours. Cell numbers were determined through DNA staining with DAPI and fold change in growth was determined from baseline readings at 24-hours. To assess if agonists of the 5HT2A receptor could enhance cell health and proliferation specifically through the 5-HT2A receptor, the model 5-HT2A receptor agonist, R-DOI was added at either 0.1 nM or 1 nM. […] Also, included is a summary of physiological serotonin and 5-HT2A receptor agonist/antagonist outcomes on cellular proliferation. This increase in proliferation promotes the formation of a compact RPE-monolayer which is important for maintaining a healthy blood-retinal barrier and can occur with low dose administration of 5-HT2A receptor agonists.
# ARPE-19 cells were plated in nutrient rich media, DMEM, containing 7% dialyzed FCS and then starved in DMEM media containing 0.5% dialyzed FCS. Cells were then changed to 7% dialyzed FCS DMEM media containing physiological relevant levels of serotonin at varying concentrations and grown for 72-hours. Cell numbers were determined through DNA staining with DAPI and fold change in growth was determined from baseline readings at 24-hours. To assess if serotonin enhances cell health and proliferation specifically through the 5-HT2A receptor, the 5-HT2A receptor antagonist, M100,907 at 10 nM was included during serotonin induction.
# ARPE-19 cells [5] = assay: SA-β-Gal cellular senescence in ARPE-19 cells in nutrient rich media (DMEM); assay type: cell-based, human; details: 10 nM in starvation media overnight, then DMEM 7% FCS 72 hours
# Protocol: ARPE-19 cells in nutrient rich media (DMEM; 7% FCS) were seeded overnight prior to being replaced with starvation media (DMEM; 0.5% FCS) containing 10 nM R-DOI or 10 nM M100,907. After overnight incubation in starvation media with drug, cells were swapped to DMEM 7% FCS media for 72-hours. After the 72-hour incubation, cells were fixed and stained for SA-β-Gal for 6-hours. Cells nuclei were then stained with DAPI for total-cell enumeration. SA-β-Gal positive cells, and total cells per frame, were quantified by microscopy.
# ARPE-19 cells [6] = assay: Hyperglycemia induced SA-β-Gal cellular senescence in ARPE-19 cells (HPLM); assay type: cell-based, human
# Protocol: Consistent with Retinal Deterioration by Glucose-Induced Cellular Senescence in the Diabetic Population, Hyperglycemic conditions induce increased disease promoting Cellular Senescence that is abrogated by low nM concentrations of the Representative 5-HT2A Receptor Agonist, R-DOI Returning to Base-line Homeostatic Levels. ARPE-19 cells in physiologically relevant media (HPLM; 7% FCS) were seeded overnight prior to being replaced with starvation media (HPLM 0.5% FCS) containing 10 nM R-DOI. After overnight incubation in starvation media, cells were swapped to media containing diabetic blood glucose levels (HPLM 7% FCS containing 5 mM, 10 mM, 20 mM, or 30 mM glucose) for 72-hours. After the 72-hour incubation, cells were fixed and stained for SA-β-Gal for 6-hours. Cells nuclei were then stained with DAPI for total-cell enumeration. SA-β-Gal positive cells, and total cells per frame, were quantified by microscopy. Pathological/diabetic glucose concentrations induce cellular senescence. 5-HT2A receptor agonism alleviates glucose-induced senescence at diabetic blood glucose levels. […]
# Effects of specific phenethylamine 5-HT2A receptor agonists on reduction of Hyperglycemia induced Disease Promoting Cellular Senescence: Inhibition of Cell Senescence and Disease Processes are Drug and Dose Dependent. […] SA-3-Gal positive cells, and total cells per frame, were quantified by microscopy. For each 5-HT2A agonist assessed, the % of senescent cells is expressed relative to the hyperglycemic control. […]
# Inhibition of Cell Senescence and Disease Processes are Drug and Dose Dependent. […] SA-β-Gal positive cells, and total cells per frame, were quantified by microscopy. For each 5-HT2A agonist assessed, the % of senescent cells is expressed relative to the hyperglycemic control. […]
structure (smiles),measurement,setting,value
"COc1cc(CC(C)C)c(OC)cc1CCN [2C-iBu, 2,5-Dimethoxy-4-isobutylphenethylamine]",hyperglycemia induced phosphorylated MLC levels,"[1]; ARPE-19, DMEM High glucose 7% FCS overnight, 10 nM, western blot",suppressed hyperglycemia induced phosphorylated MLC levels
same,phosphorylation of MLC,"[1]; WT ARPE-19 in media with hyperglycemic glucose (17.5 mM), low dose, not high doses",inhibited
same,AMP kinase activation,AMP kinase,activation of AMP kinase
same,ATP levels relative to Mock treated ARPE-19 cells,ARPE-19 cells [2]; 10 fold dilutions 100 nM to 0.1 nM,Increase Mitochondrial Function And ATP Production
same,production of ATP,"ARPE-19 cells [2]; ARPE WT cells, 24 h after administration",enhanced production of ATP
same,blue light induced mitochondrial fragmentation/damage,ARPE cells,Inhibit Blue Light and Oxidative Stress Induced Mitochondrial Fragmentation/Damage
same,oxidative stress-induced cell death,A549 cells,protected cells from oxidative stress-induced cell death
COc1cc([C@@H]2c3cc4c(cc3[C@@H](O[C@@H]3O[C@@H]5CO[C@@H](C)O[C@H]5[C@H](O)[C@H]3O)[C@H]3COC(=O)[C@H]23)OCO4)cc(OC)c1O [etoposide],cell size (forward scatter),ARPE-19 cells [3],increased cell size
"NCCc1c[nH]c2ccc(O)cc12 [Serotonin, 5-hydroxytryptamine]",cellular replication / proliferation,ARPE-19 cells [4],Enhances Cellular Health and Replication
same,cellular replication / proliferation,ARPE-19 cells [4]; listed as 5-HT,increase cellular replication; also recorded: increase ARPE-19 Proliferation
same,cellular replication / proliferation,ARPE-19 cells [4]; listed as serotonin,enhance cellular replication patterns; also recorded: enhance replication of cells
"COc1cccc([C@H](O)C2CCN(CCc3ccc(F)cc3)CC2)c1OC [M100,907, reference compound]",serotonin-mediated enhanced replication,ARPE-19 cells [4]; antagonist at 10 nM during serotonin induction,abrogated serotonin-mediated enhanced replication
same,cellular senescence (SA-β-Gal positive cells),ARPE-19 cells [5],Increases Proportions of Cellular Senescence
COc1cc(C(F)(F)F)c(OC)cc1C[C@@H](C)N [R-DOTFM],concentration at which disease is exacerbated,ARPE-19 cells [6],≥ 10 nM
same,hyperglycemia induced cellular senescence relative to hyperglycemic control,"ARPE-19 cells [6]; 1 uM to 0.1 nM, HPLM 30 mM glucose, 72 hours",enhances rather than inhibits Aging-Associated Disease Processes and Cellular Senescence
